# Test results: patent US11077115B2, “Rorgamma modulators and uses thereof” (Genfit, priority 2017, dated 2021)
# Structures can show the parent of a compound that is named as a salt.
# Tested on: not given
# Test: not given
# Details: not given
row,melting point [°C],Structure (SMILES)
1,101,"Cc1ccc(C(NC(=O)Cc2ccc(N3CCS(=O)(=O)CC3)cc2)c2ccc(C)o2)c(N2CCCCC2)c1 (centres unmarked) (as salt: HCl) [Cpd. 6, 2-[4-(1,1-dioxo-1-thiomorpholin-4-yl)phenyl]-N-{[4-methyl-2-(piperidin-1-yl)phenyl](5-methylfuran-2-yl)methyl}acetamide]"
2,110,"Cc1ccc(C(NC(=O)Cc2ccc(N3CCS(=O)(=O)CC3)c(C)c2)c2ccc(C)o2)c(Br)c1 (centres unmarked) (as salt: HCl) [Cpd. 11, N-[(2-bromo-4-methylphenyl)(5-methylfuran-2-yl)methyl]-2-[4-(1,1-dioxo-1-thiomorpholin-4-yl)-3-methylphenyl]acetamide]"
3,97,"Cc1ccc(C(NC(=O)Cc2ccc(N3CCS(=O)(=O)CC3)c(C)c2)c2ccc(C)o2)c(N2CCCCC2)c1 (centres unmarked) (as salt: HCl) [Cpd. 12, 2-[4-(1,1-dioxo-1-thiomorpholin-4-yl)-3-methylphenyl]-N-{[4-methyl-2-(piperidin-1-yl)phenyl](5-methylfuran-2-yl)methyl}acetamide]"
4,106,"COc1ccc(C(NC(=O)Cc2ccc(N3CCS(=O)(=O)CC3)c(C)c2)c2ccc(C)o2)c(N2CCC(C(F)(F)F)CC2)c1 (centres unmarked) (as salt: HCl) [Cpd. 14, 2-[4-(1,1-dioxo-1-thiomorpholin-4-yl)-3-methylphenyl]-N-({4-methoxy-2-[4-(trifluoromethyl)piperidin-1-yl]phenyl}(5-methylfuran-2-yl)methyl)acetamide]"

# The next lines start with the compound.
row,Structure (SMILES),melting point [°C]
1,"O=C(Cc1ccc(N2CCS(=O)(=O)CC2)cc1)NC(c1ccccc1)c1ccccc1N1CCCCC1 (centres unmarked) (as salt: HCl) [Cpd. 1, 2-[4-(1,1-dioxo-1-thiomorpholin-4-yl)phenyl]-N-{phenyl[2-(piperidin-1-yl)phenyl]methyl}acetamide]",202
2,"Cc1ccc(N2CCS(=O)(=O)CC2)cc1CC(=O)NC(c1ccccc1)c1ccccc1N1CCCCC1 (centres unmarked) (as salt: HCl) [Cpd. 2, 2-[5-(1,1-dioxo-1-thiomorpholin-4-yl)-2-methylphenyl]-N-{phenyl[2-(piperidin-1-yl)phenyl]methyl}acetamide]",188
3,"O=C(Cc1cc(N2CCS(=O)(=O)CC2)ccc1F)NC(c1ccccc1)c1ccccc1N1CCCCC1 (centres unmarked) (as salt: HCl) [Cpd. 3, 2-[5-(1,1-dioxo-1-thiomorpholin-4-yl)-2-fluorophenyl]-N-{phenyl[2-(piperidin-1-yl)phenyl]methyl}acetamide]",184
4,"Cc1ccc(C(NC(=O)Cc2cc(N3CCS(=O)(=O)CC3)ccc2F)c2ccccc2)c(N2CCOCC2)c1 (centres unmarked) (as salt: HCl) [Cpd. 4, 2-[5-(1,1-dioxo-1-thiomorpholin-4-yl)-2-fluorophenyl]-N-{[4-methyl-2-(morpholin-4-yl)phenyl](phenyl)methyl}acetamide]",207
5,"Cc1ccc(C(NC(=O)Cc2cc(N3CCS(=O)(=O)CC3)ccc2C)c2ccc(C)o2)c(N2CCCCC2)c1 (centres unmarked) (as salt: HCl) [Cpd. 5, 2-[5-(1,1-dioxo-1-thiomorpholin-4-yl)-2-methylphenyl]-N-{[4-methyl-2-(piperidin-1-yl)phenyl](5-methylfuran-2-yl)methyl}acetamide]",101
6,"Cc1ccc(C(NC(=O)Cc2cc(N3CCS(=O)(=O)CC3)ccc2C)c2ccccc2)c(N2CCOCC2)c1 (centres unmarked) (as salt: HCl) [Cpd. 7, 2-[5-(1,1-dioxo-1-thiomorpholin-4-yl)-2-methylphenyl]-N-{[4-methyl-2-(morpholin-4-yl)phenyl](phenyl)methyl}acetamide]",219
7,"Cc1ccc(C(NC(=O)Cc2cc(N3CCOCC3)ccc2F)c2ccccc2)c(N2CCCCC2)c1 (centres unmarked) (as salt: HCl) [Cpd. 8, 2-[2-fluoro-5-(morpholin-4-yl)phenyl]-N-{[4-methyl-2-(piperidin-1-yl)phenyl](phenyl)methyl}acetamide]",82
8,"Cc1ccc(C(NC(=O)Cc2ccc(N3CCS(=O)(=O)CC3)cc2)c2ccccc2)c(Br)c1 (centres unmarked) (as salt: HCl) [Cpd. 9, N-[(2-bromo-4-methylphenyl)(phenyl)methyl]-2-[4-(1,1-dioxo-1-thiomorpholin-4-yl)phenyl]acetamide]",142
9,"Cc1ccc(C(NC(=O)Cc2ccc(N3CCS(=O)(=O)CC3)c(C)c2)c2ccc(C)o2)c(C(F)(F)F)c1 (centres unmarked) (as salt: HCl) [Cpd. 10, 2-[4-(1,1-dioxo-1-thiomorpholin-4-yl)-3-methylphenyl]-N-{[4-methyl-2-(trifluoromethyl)phenyl](5-methylfuran-2-yl)methyl}acetamide]",99
10,"COc1ccc(C(NC(=O)Cc2ccc(N3CCS(=O)(=O)CC3)c(C)c2)c2ccc(C)o2)c(N2CCC(C)CC2)c1 (centres unmarked) (as salt: HCl) [Cpd. 13, 2-[4-(1,1-dioxo-1-thiomorpholin-4-yl)-3-methylphenyl]-N-{[4-methoxy-2-(4-methylpiperidin-1-yl)phenyl](5-methylfuran-2-yl)methyl}acetamide]",101
11,"COc1ccc(C(NC(=O)Cc2ccc(N3CCS(=O)(=O)CC3)c(C)c2)c2ccc(C)o2)c(N(C)C)c1 (centres unmarked) (as salt: HCl) [Cpd. 15, N-{[2-(dimethylamino)-4-methoxyphenyl](5-methylfuran-2-yl)methyl}-2-[4-(1,1-dioxo-1-thiomorpholin-4-yl)-3-methylphenyl]acetamide]",98
12,"COc1ccc(C(NC(=O)Cc2ccc(N3CCS(=O)(=O)CC3)c(C)c2)c2ccc(C)o2)c(N2CC3CC3C2)c1 (centres unmarked) (as salt: HCl) [Cpd. 16, N-[(2-{3-azabicyclo[3.1.0]hexan-3-yl}-4-methoxyphenyl)(5-methylfuran-2-yl)methyl]-2-[4-(1,1-dioxo-1-thiomorpholin-4-yl)-3-methylphenyl]acetamide]",103
13,"Cc1ccc(N2CCCCC2)c(C(NC(=O)Cc2cnc(N3CCS(=O)(=O)CC3)nc2)c2ccc(C)o2)c1 (centres unmarked) (as salt: HCl) [Cpd. 17, 2-[2-(1,1-dioxo-1-thiomorpholin-4-yl)pyrimidin-5-yl]-N-{[5-methyl-2-(piperidin-1-yl)phenyl](5-methylfuran-2-yl)methyl}acetamide]",159

# Target: T1, human RORγt (Homo sapiens, UniProt P51449)
# T1 sequence (P51449 1-497 isoform P51449-2): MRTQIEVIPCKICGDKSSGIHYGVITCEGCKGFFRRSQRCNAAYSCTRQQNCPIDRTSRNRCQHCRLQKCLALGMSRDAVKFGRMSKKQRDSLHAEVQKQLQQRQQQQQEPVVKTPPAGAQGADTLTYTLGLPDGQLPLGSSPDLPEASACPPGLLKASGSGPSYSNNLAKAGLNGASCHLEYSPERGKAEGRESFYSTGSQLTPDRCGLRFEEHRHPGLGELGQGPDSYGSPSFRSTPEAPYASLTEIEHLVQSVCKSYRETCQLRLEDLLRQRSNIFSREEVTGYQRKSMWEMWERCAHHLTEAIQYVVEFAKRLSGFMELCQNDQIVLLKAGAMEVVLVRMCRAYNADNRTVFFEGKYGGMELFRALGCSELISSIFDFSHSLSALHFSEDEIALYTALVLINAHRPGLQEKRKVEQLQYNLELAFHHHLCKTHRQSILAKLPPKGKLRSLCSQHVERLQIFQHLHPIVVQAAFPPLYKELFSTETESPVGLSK
# Test: RORE Luciferase/RORγt transactivation assay (IL-17 promoter luciferase reporter in COS-7 cells)
# Assay type: cell-based
# Set-up: V5-His (named only through the vector pcDNA3.1D/V5-His-TOPO); expressed in transfected cells; host or cells: COS-7 (monkey kidney)
# Details: RORγt activity inhibition, luciferase activity in transfected COS-7 cells, 20 h
# Procedure: It is well known that RORγ binds to a conserved non-coding sequence (CNS) enhancer element in the IL-17 promoter.
# Culture medium was changed every 2 days.
# The 4.3 Kb human IL-17 promoter containing the RORγ-specific CNS enhancer element was PCR amplified from human genomic DNA and cloned into a pGL3-TKLuc2Cp reporter plasmid.
# The luciferase reporter plasmid and the RORγt overexpression plasmid were transfected into COS-7 cell line using 4 μL JetPEI™/μg of DNA. Briefly, 150 ng of DNA (ration 1/2 between RORE-Tk Luc2Cp and cDNA RORγt or the empty vector for the negative control) was served to transfect adherent COS-7 cells in a […] culture flask, in complete medium (see cos-7 cell line culture).
# Cells were then detached (using trypsin) and washed by centrifugation at 300 g for 10 minutes. Cell pellet was resuspended in serum free/phenol red free DMEM and seeded in 384 well plates at a density of 10000 cells/well and then incubated for 4 h at 37° C.
# Compounds were dissolved in 100% DMSO to obtain 10 mM stock solutions. For each compound, test concentrations were diluted in serum free/phenol red free DMEM using the Genesis Freedom 200™ (TECAN) and added to the cells to obtain a 0.3% DMSO final concentration (in a final volume of 40 μL per well).
# The luciferase activity was then measured with 40 μL/well steady-Glo Luciferase assay system (Promega, Madison, Wis.) and after incubation at room temperature for 30 minutes. The luminescence was estimated using the Ultra384 reader (TECAN). Data were collected and analyzed using GraphPad Prism software (GraphPad Software V5.02, San Diego Calif. USA). IC50 in μM and E max in % were reported for each compound.
row,IC50 [nM],Structure (SMILES)
1,1000 to 10000,"Cc1ccc(C(NC(=O)Cc2cnc(N3CCS(=O)(=O)CC3)nc2)c2ccc(C)o2)c(C(F)(F)F)c1 (centres unmarked) [Cpd. 33, 2-[2-(1,1-dioxo-1-thiomorpholin-4-yl)pyrimidin-5-yl]-N-{[4-methyl-2-(trifluoromethyl)phenyl](5-methylfuran-2-yl)methyl}acetamide]"
2,1000 to 10000,"Cc1ccc(C(NC(=O)Cc2cnc(N3CCS(=O)(=O)CC3)nc2)c2ccc(Cl)cc2Cl)o1 (centres unmarked) [Cpd. 50, N-[(2,4-dichlorophenyl)(5-methylfuran-2-yl)methyl]-2-[2-(1,1-dioxo-1-thiomorpholin-4-yl)pyrimidin-5-yl]acetamide]"
3,< 100,"Cc1ccc(C(NC(=O)Cc2ccc(N3CCS(=O)(=O)CC3)c(O)c2)c2ccc(C)o2)c(N2CCCCC2)c1 (centres unmarked) [Cpd. 61, 2-[4-(1,1-dioxo-1-thiomorpholin-4-yl)-3-hydroxyphenyl]-N-{[4-methyl-2-(piperidin-1-yl)phenyl](5-methylfuran-2-yl)methyl}acetamide]"
4,100 to 1000,"Cc1ccc(C(NC(=O)Cc2ccc(CO)c(N3CCS(=O)(=O)CC3)c2)c2ccc(C)o2)c(N2CCCCC2)c1 (centres unmarked) [Cpd. 63, 2-[3-(1,1-dioxo-1-thiomorpholin-4-yl)-4-(hydroxymethyl)phenyl]-N-{[4-methyl-2-(piperidin-1-yl)phenyl](5-methylfuran-2-yl)methyl}acetamide]"

# The next lines start with the compound.
row,Structure (SMILES),IC50 [nM]
1,"COCc1ccc(CC(=O)NC(c2ccc(C)o2)c2ccc(C)cc2N2CCCCC2)cc1N1CCS(=O)(=O)CC1 (centres unmarked) [Cpd. 62, 2-[3-(1,1-dioxo-1-thiomorpholin-4-yl)-4-(methoxymethyl)phenyl]-N-{[4-methyl-2-(piperidin-1-yl)phenyl](5-methylfuran-2-yl)methyl}acetamide]",100 to 1000
2,"Cc1ccc(C(NC(=O)C2(c3ccc(N4CCS(=O)(=O)CC4)cn3)CC2)c2ccc(C)o2)c(C)c1 (centres unmarked) [Cpd. 73, N-[(2,4-dimethylphenyl)(5-methylfuran-2-yl)methyl]-1-[5-(1,1-dioxo-1-thiomorpholin-4-yl)pyridin-2-yl]cyclopropane-1-carboxamide]",100 to 1000
